The results in this text go back to patent US4430327A, “Method for treating pregnant females for pain and anxiety” (Eli Lilly and Company, priority 1982, dated 1984).

The nature of series [1]: Placental transport in pregnant ewes: maternal and fetal serum levels after intramuscular administration. Type of series: in vivo. Conditions: sheep. Here is the method:
In the assay using pregnant ewes, fetal jugular veins and carotid arteries were catheterized and externalized. Maternal femoral arteries were also catheterized. Upon stabilization of the animals, metkephamid (acetate salt) was given intramuscularly, and maternal (10 ml.) and fetal (7 ml.) arterial blood were taken at 0, 10, 20, and 45 minutes. In this assay, 5 ewes at various stages of pregnancy ranging from day 115 to day 145 of a 145-147 day gestation period were used.
(§1) In assaying for metkephamid, 1 ml. serum samples containing 6.72 mg. NaF and 8.0 mg. ethylenediamine tetraacetic acid (EDTA) were prepared and precipitated by addition of 2 ml. acetone. The resulting supernatants were saturated with NaCl and extracted with ethyl acetate. The extracts were dried and derivatized with Fluram® solution. The resulting solution was subjected to reverse phase high performance liquid chromatography and fluorescence detection.

A short description of series [2]: Placental transport in pregnant rats: maternal and fetal serum levels after subcutaneous administration. Type of series: in vivo. Particulars: rat, 50 mg/kg subcutaneous. The procedure:
In the assay using rats, 19 female rats on day 20 of their gestation period were administered 50 mg./kg. body weight metkephamid (acetate salt) subcutaneously. Sixty minutes after administration, the rats were decapitated, and their blood was collected in glass tubes. The fetuses were removed from the uterus, and the blood was collected either after decapitation or via heart puncture using glass capillary tubes.
as §1
For comparison, meperidine was administered to rats in the manner described for metkephamid. Meperidine content was assayed by adding 6.72 mg. NaF and 8.0 mg. EDTA to 1 ml. samples of serum. The samples were made alkaline with 0.1 ml. of 1.0 M NaOH and extracted with diethyl ether. The extracts were dried and dissolved in 0.3 ml. of ethyl acetate. An aliquot was injected into a gas chromatograph containing a 5 ft. glass column packed with 3% OV-1 on 100/120 mesh Gas Chrom Q. The oven temperature was 165° C., and the flame ionization detector temperature was 250° C.

In series [1] (female, maternal serum, im, 5 mg/kg intramuscular, 10 min), `CC(=O)O.CSCC[C@@H](C(N)=O)N(C)C(=O)[C@H](Cc1ccccc1)NC(=O)CNC(=O)[C@@H](C)NC(=O)[C@@H](N)Cc1ccc(O)cc1` [Metkephamid, L-tyrosyl-D-alanyl-glycyl-L-phenylalanyl-N^α -methyl-L-methionylamide acetate] showed a level at 10 min of 9.46 ± 3.01 µg/mL. The level at 20 min in series [1] (female, maternal serum, im, 5 mg/kg intramuscular, 20 min) is 9.43 ± 2.6 µg/mL. In series [1] (female, maternal serum, im, 5 mg/kg intramuscular, 45 min), this molecule had a level at 0.75 h of 8.54 ± 2.6 µg/mL. Moreover, the fetal levels result in series [1] (5 mg./kg., all measured times, limit of sensitivity about 50 ng./ml.) was “undetectable”. Further, the Fetal serum level in series [1] (5 mg/kg intramuscular, 0 min) came out at 0.0 µg/mL; in series [1] (5 mg/kg intramuscular, 10 min), 0.0 µg/mL; in series [1] (5 mg/kg intramuscular, 20 min), 0.0 µg/mL; in series [1] (5 mg/kg intramuscular, 45 min), 0.0 µg/mL; in series [2] (60 min), 0.12 ± 0.04 µg/mL. In addition, the Maternal serum level in series [1] (5 mg/kg intramuscular, 0 min) came out at 0.0 µg/mL; in series [2] (60 min), 7.17 ± 0.28 µg/mL.
In series [2] (45 min), `CCOC(=O)C1(c2ccccc2)CCN(C)CC1` [Meperidine, meperidine, reference compound] showed a Fetal serum level of 2.02 ± 0.23 µg/mL and a Maternal serum level of 3.73 ± 0.89 µg/mL.
